From PubChem BioAssay (NCI) come the findings set out here.

Structures are written as SMILES.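 Growth conditions: 96-well plates. Treatment: test compound, 48 hours, 5 concentrations. Analysis: linear interpolation between bracketing concentrations; unreached endpoints set to highest concentration. GI50: concentration for 50% inhibition of growth. TGI: total growth inhibition.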

The first assay deals with HCC-2998 colon. Briefly: NCI anticancer screen, dose series, 48 h.
Take `COc1cc(-c2csc(NC(=O)c3cc(C(F)(F)F)cc(C(F)(F)F)c3)n2)cc(OC)c1OC`: the GI50 was 3.2 µM and the TGI was more than 100 µM.

Turning to `CC(C)=CCC12Cc3ccc(O)cc3C(C(C)CN1)C2C` (centres undefined), the TGI turned out to be 48.2 µM.

As for `CC(=O)c1cccc(N(/C=C/C(=O)C(F)(F)F)CC(=O)c2ccc(Cl)cc2)c1`, the GI50 is more than 100 µM and the TGI was more than 100 µM.

For the compound `O=c1oc2ccccc2c(O)c1C=NC(=S)c1ccncc1`, the TGI is more than 100 µM.

The compound `Cc1ccc(C(=O)Cc2nc3c([nH]c2=O)c(C)nn3-c2ccccc2)c(C)c1` showed a TGI of more than 10 µM.

`Cc1cc2c(C(C)C)c(O)c(O)c(C=Nc3cc(C(F)(F)F)ccc3Cl)c2c(O)c1-c1c(C)cc2c(C(C)C)c(O)c(O)c(C=Nc3cc(C(F)(F)F)ccc3Cl)c2c1O`: the TGI is more than 100 µM.

`CC(CO)[C@H]1OC(=O)C=C2[C@@]13O[C@@H]3[C@H]1OC(=O)[C@@]3(C)[C@H]4O[C@H]4C[C@@]2(C)[C@@H]13` (some centres undefined) gave a TGI of 8.58 µM.

Consider `CSc1nc2c(c(O)c(C)c(=O)n2C2OC(COC(C)=O)C(OC(C)=O)C(OC(C)=O)C2OC(C)=O)c(=O)n1C` (centres undefined), for which the TGI is more than 100 µM.

`Cc1nc2c(n1CC(C)(C)C)C(=O)c1ccccc1C2=O`: the TGI was more than 100 µM.

In the case of `C[C@]12CC[C@@H]3c4ccc(O)c([N+](=O)[O-])c4CC[C@H]3[C@@H]1CC[C@@H]2NS(=O)(=O)c1ccc(C(F)(F)F)cc1`, the GI50 was 2.05 µM and the TGI was found to be 4.02 µM.

With `COC(=O)C1=C(OC(=O)c2ccc(Cl)cc2)C(C(=O)OC)[C@@]2(O)[C@@H](C(=O)OC)C(c3ccccc3C(F)(F)F)C[C@@H]1[C@@H]2C(=O)OC` (some centres undefined), the GI50 was 5.54 µM and the TGI was more than 100 µM.

In turn, `Cc1c(C)c2cc3c(=O)ccoc3c(C)c2oc1=O` showed a TGI of more than 100 µM.

The next assay has as its system ACHN renal. Briefly: NCI anticancer screen, dose series, 48 h.
`COc1cc(-c2csc(NC(=O)c3cc(C(F)(F)F)cc(C(F)(F)F)c3)n2)cc(OC)c1OC`: the GI50 was 3.42 µM and the TGI is more than 100 µM.

`CC(C)=CCC12Cc3ccc(O)cc3C(C(C)CN1)C2C` (centres undefined) registered a TGI of more than 100 µM.

On to `CC(=O)c1cccc(N(/C=C/C(=O)C(F)(F)F)CC(=O)c2ccc(Cl)cc2)c1`, for which the GI50 was more than 100 µM and the TGI was more than 100 µM.

`O=c1oc2ccccc2c(O)c1C=NC(=S)c1ccncc1` displayed a TGI of more than 100 µM.

Take `O=C(O)c1cc[c]([Hg][S]c2ncnc3nc[nH]c23)cc1`: the GI50 was 11.6 µM and the TGI came to 23.7 µM.

As for `Cc1ccc(C(=O)Cc2nc3c([nH]c2=O)c(C)nn3-c2ccccc2)c(C)c1`, the TGI is more than 10 µM.

The compound `Clc1ccccc1NN(Cc1ccccn1)c1ccccc1Cl` returned a TGI of more than 100 µM.

As to `Cc1cc2c(C(C)C)c(O)c(O)c(C=Nc3cc(C(F)(F)F)ccc3Cl)c2c(O)c1-c1c(C)cc2c(C(C)C)c(O)c(O)c(C=Nc3cc(C(F)(F)F)ccc3Cl)c2c1O`, the TGI was found to be 79.4 µM.

Turning to `CC(CO)[C@H]1OC(=O)C=C2[C@@]13O[C@@H]3[C@H]1OC(=O)[C@@]3(C)[C@H]4O[C@H]4C[C@@]2(C)[C@@H]13` (some centres undefined), the TGI is 4 µM.

`CSc1nc2c(c(O)c(C)c(=O)n2C2OC(COC(C)=O)C(OC(C)=O)C(OC(C)=O)C2OC(C)=O)c(=O)n1C` (centres undefined) showed a TGI of more than 100 µM.

Consider `Cc1nc2c(n1CC(C)(C)C)C(=O)c1ccccc1C2=O`, for which the TGI is more than 100 µM.

Regarding `C/C(=N\O)c1ccc(Nc2cc(-n3nnc4ccccc43)nc3ccccc23)cc1`, the GI50 was 5.82 µM and the TGI worked out at 21.8 µM.

Consider `C[C@]12CC[C@@H]3c4ccc(O)c([N+](=O)[O-])c4CC[C@H]3[C@@H]1CC[C@@H]2NS(=O)(=O)c1ccc(C(F)(F)F)cc1`, for which the GI50 was 2.17 µM and the TGI stood at 6.78 µM.

For the compound `COC(=O)C1=C(OC(=O)c2ccc(Cl)cc2)C(C(=O)OC)[C@@]2(O)[C@@H](C(=O)OC)C(c3ccccc3C(F)(F)F)C[C@@H]1[C@@H]2C(=O)OC` (some centres undefined), the GI50 is 3.19 µM and the TGI is more than 100 µM.

`Cc1c(C)c2cc3c(=O)ccoc3c(C)c2oc1=O` came in with a TGI of more than 100 µM.

The test system of the next assay is SK-OV-3 ovarian. Briefly: NCI anticancer screen, dose series, 48 h.
In the case of `COc1cc(-c2csc(NC(=O)c3cc(C(F)(F)F)cc(C(F)(F)F)c3)n2)cc(OC)c1OC`, the GI50 is 2.91 µM and the TGI is 9.76 µM.

As for `CC(C)=CCC12Cc3ccc(O)cc3C(C(C)CN1)C2C` (centres undefined), the TGI is more than 100 µM.

Regarding `CC(=O)c1cccc(N(/C=C/C(=O)C(F)(F)F)CC(=O)c2ccc(Cl)cc2)c1`, the GI50 was more than 100 µM and the TGI is more than 100 µM.

With `O=c1oc2ccccc2c(O)c1C=NC(=S)c1ccncc1`, the TGI is more than 100 µM.

Turning to `O=C(O)c1cc[c]([Hg][S]c2ncnc3nc[nH]c23)cc1`, the GI50 was 10.8 µM and the TGI was determined as 23.2 µM.

`Cc1ccc(C(=O)Cc2nc3c([nH]c2=O)c(C)nn3-c2ccccc2)c(C)c1` returned a TGI of more than 10 µM.

`Clc1ccccc1NN(Cc1ccccn1)c1ccccc1Cl`: the TGI was determined as 94.9 µM.

`Cc1cc2c(C(C)C)c(O)c(O)c(C=Nc3cc(C(F)(F)F)ccc3Cl)c2c(O)c1-c1c(C)cc2c(C(C)C)c(O)c(O)c(C=Nc3cc(C(F)(F)F)ccc3Cl)c2c1O` registered a TGI of 54 µM.

`CC(CO)[C@H]1OC(=O)C=C2[C@@]13O[C@@H]3[C@H]1OC(=O)[C@@]3(C)[C@H]4O[C@H]4C[C@@]2(C)[C@@H]13` (some centres undefined) had a TGI of more than 57 µM.

Turning to `CSc1nc2c(c(O)c(C)c(=O)n2C2OC(COC(C)=O)C(OC(C)=O)C(OC(C)=O)C2OC(C)=O)c(=O)n1C` (centres undefined), the TGI was more than 100 µM.

As to `Cc1nc2c(n1CC(C)(C)C)C(=O)c1ccccc1C2=O`, the TGI is more than 100 µM.

For the compound `C/C(=N\O)c1ccc(Nc2cc(-n3nnc4ccccc43)nc3ccccc23)cc1`, the GI50 was 24.1 µM and the TGI was more than 62.3 µM.

As for `C[C@]12CC[C@@H]3c4ccc(O)c([N+](=O)[O-])c4CC[C@H]3[C@@H]1CC[C@@H]2NS(=O)(=O)c1ccc(C(F)(F)F)cc1`, the GI50 is 2.65 µM and the TGI was found to be 7.36 µM.

As to `COC(=O)C1=C(OC(=O)c2ccc(Cl)cc2)C(C(=O)OC)[C@@]2(O)[C@@H](C(=O)OC)C(c3ccccc3C(F)(F)F)C[C@@H]1[C@@H]2C(=O)OC` (some centres undefined), the GI50 is 5.99 µM and the TGI is 60 µM.

Consider `Cc1c(C)c2cc3c(=O)ccoc3c(C)c2oc1=O`, for which the TGI was more than 100 µM.

In a further assay the test system is SF-268 CNS. Briefly: NCI anticancer screen, dose series, 48 h.
Consider `COc1cc(-c2csc(NC(=O)c3cc(C(F)(F)F)cc(C(F)(F)F)c3)n2)cc(OC)c1OC`, for which the GI50 was 3.64 µM and the TGI was more than 100 µM.

`CC(C)=CCC12Cc3ccc(O)cc3C(C(C)CN1)C2C` (centres undefined) yielded a TGI of more than 100 µM.

Regarding `CC(=O)c1cccc(N(/C=C/C(=O)C(F)(F)F)CC(=O)c2ccc(Cl)cc2)c1`, the GI50 is more than 100 µM and the TGI was more than 100 µM.

Consider `O=C(O)c1cc[c]([Hg][S]c2ncnc3nc[nH]c23)cc1`, for which the GI50 was 5.15 µM and the TGI came to 19 µM.

As to `Cc1ccc(C(=O)Cc2nc3c([nH]c2=O)c(C)nn3-c2ccccc2)c(C)c1`, the TGI was more than 10 µM.

`Clc1ccccc1NN(Cc1ccccn1)c1ccccc1Cl` had a TGI of 52.4 µM.

Consider `Cc1cc2c(C(C)C)c(O)c(O)c(C=Nc3cc(C(F)(F)F)ccc3Cl)c2c(O)c1-c1c(C)cc2c(C(C)C)c(O)c(O)c(C=Nc3cc(C(F)(F)F)ccc3Cl)c2c1O`, for which the TGI is more than 100 µM.

With `CC(CO)[C@H]1OC(=O)C=C2[C@@]13O[C@@H]3[C@H]1OC(=O)[C@@]3(C)[C@H]4O[C@H]4C[C@@]2(C)[C@@H]13` (some centres undefined), the TGI is more than 25.8 µM.

`CSc1nc2c(c(O)c(C)c(=O)n2C2OC(COC(C)=O)C(OC(C)=O)C(OC(C)=O)C2OC(C)=O)c(=O)n1C` (centres undefined): the TGI is more than 100 µM.

Take `Cc1nc2c(n1CC(C)(C)C)C(=O)c1ccccc1C2=O`: the TGI is more than 100 µM.

For the compound `C/C(=N\O)c1ccc(Nc2cc(-n3nnc4ccccc43)nc3ccccc23)cc1`, the GI50 is 9.97 µM and the TGI was more than 41.9 µM.

As to `C[C@]12CC[C@@H]3c4ccc(O)c([N+](=O)[O-])c4CC[C@H]3[C@@H]1CC[C@@H]2NS(=O)(=O)c1ccc(C(F)(F)F)cc1`, the GI50 is 2.28 µM and the TGI is 7.55 µM.

With `COC(=O)C1=C(OC(=O)c2ccc(Cl)cc2)C(C(=O)OC)[C@@]2(O)[C@@H](C(=O)OC)C(c3ccccc3C(F)(F)F)C[C@@H]1[C@@H]2C(=O)OC` (some centres undefined), the GI50 is 11 µM and the TGI was more than 100 µM.

Compound `Cc1c(C)c2cc3c(=O)ccoc3c(C)c2oc1=O` yielded a TGI of more than 100 µM.

For a further assay, the system named is HL-60(TB) leukemia. Briefly: NCI anticancer screen, dose series, 48 h.
For the compound `COc1cc(-c2csc(NC(=O)c3cc(C(F)(F)F)cc(C(F)(F)F)c3)n2)cc(OC)c1OC`, the GI50 was 2.07 µM and the TGI is 6.18 µM.

Turning to `CC(C)=CCC12Cc3ccc(O)cc3C(C(C)CN1)C2C` (centres undefined), the TGI is more than 100 µM.

In turn, `O=c1oc2ccccc2c(O)c1C=NC(=S)c1ccncc1` had a TGI of 35.5 µM.

As to `O=C(O)c1cc[c]([Hg][S]c2ncnc3nc[nH]c23)cc1`, the GI50 is 0.4 µM and the TGI is 13.4 µM.

As to `Cc1ccc(C(=O)Cc2nc3c([nH]c2=O)c(C)nn3-c2ccccc2)c(C)c1`, the TGI was more than 10 µM.

In turn, `Clc1ccccc1NN(Cc1ccccn1)c1ccccc1Cl` displayed a TGI of 44 µM.

`Cc1cc2c(C(C)C)c(O)c(O)c(C=Nc3cc(C(F)(F)F)ccc3Cl)c2c(O)c1-c1c(C)cc2c(C(C)C)c(O)c(O)c(C=Nc3cc(C(F)(F)F)ccc3Cl)c2c1O`: the TGI is 78.5 µM.

Consider `CSc1nc2c(c(O)c(C)c(=O)n2C2OC(COC(C)=O)C(OC(C)=O)C(OC(C)=O)C2OC(C)=O)c(=O)n1C` (centres undefined), for which the TGI is more than 100 µM.

`Cc1nc2c(n1CC(C)(C)C)C(=O)c1ccccc1C2=O` had a TGI of more than 100 µM.

Consider `C/C(=N\O)c1ccc(Nc2cc(-n3nnc4ccccc43)nc3ccccc23)cc1`, for which the GI50 was 10.6 µM and the TGI worked out at 45.7 µM.

Take `Cc1c(C)c2cc3c(=O)ccoc3c(C)c2oc1=O`: the TGI was more than 100 µM.

Another assay has as its system SF-295 CNS. Briefly: NCI anticancer screen, dose series, 48 h.
On to `COc1cc(-c2csc(NC(=O)c3cc(C(F)(F)F)cc(C(F)(F)F)c3)n2)cc(OC)c1OC`, for which the GI50 is 2.27 µM and the TGI came out at 14.7 µM.
